In patent publication US11014896B2, “TRPA1 and TRPV4 inhibitors and methods of using the same for organ-specific inflammation and itch” (Duke University, priority 2014, dated 2021):
Entries after “also recorded” stand apart in the source; their conditions may differ.

Key:
[1] = Formalin-evoked nocifensive (rubbing) behavior, whisker-pad injection, in vivo pain model in mice; design: species or system mouse; settings: for formalin-induced nocifensive behavior, time course: FIG. 21D; for formalin-induced nocifensive behavior, quantitation, in particular second phase: compounds pre-injected at 0.5 mM/10 μL into whiskerpad 15 min before 4% formalin
Experimental: Compounds were tested for their effect in reducing pain using an in vivo pain model in mice. For mouse formalin-evoked irritant behavior measurements, mice were well-fed, well-rested, and tested at the same time of day, at the same time-point of their circadian rhythm. They were allowed to acclimate to a plexiglas chamber for at least 30 min before testing, and received 10 μL subcutaneous injection of 4% of formalin (diluted from an aqueous solution of commercial 37% formaldehyde with normal saline (NS)) through a 30-gauge needle into the right whiskerpad, as further detailed in Luccarini et al. (J. Pain, 2006, 7, 908-914). Normal saline was used as control injection. After injection, mice were immediately placed back into the chamber and the rubbing behavior was recorded by a private consumer-type video-camera for a 45 min observation period. The recording time was divided into 9 blocks of 5 min, and a nociceptive score was determined per block by measuring the time that the animals spent rubbing the injected area predominantly with the ipsilateral fore-paw and rarely with hind-paw. This rubbing behavior with fore-paw is evoked by pain, which is distinct from itch behavior. Behavioral analysis was conducted by observers blinded to treatment.
To investigate the effects of the specific compounds GSK205, 16-8, and 16-8/18hy on formalin-induced nociceptive behavior, mice received a single subcutaneous injection of the compounds into the whiskerpad (10 μL, dissolved in 4% DMSO) 15 min before formalin injection. Control animals received the same volume of NS, 4% DMSO.

[2] = UVB-overexposure evoked nocifensive behavior (mouse model for sunburn), topical treatment; type: in vivo; settings: 0.5 mM in 40 μL, n=4/group
Experimental: Compounds were tested for their effect on nocifensive behavior (response to pain) following UVB overexposure. Behavioral tests were performed to evaluate the decrease in withdrawal thresholds in response to mechanical von Frey hair or thermal stimuli applied to hind paws. The Von-Frey apparatus (Ugo Basile) applied a mechanical stimulus with a flexible steel wire from underneath the hind paw. The force leading to withdrawal was determined. For the thermal stimuli test, paws were stimulated with heat from underneath applied by an infrared beam (Hargreave's test apparatus; Ugo Basile), and withdrawal latencies were recorded. The withdrawal thresholds were ascertained before and after UV exposure. Mice were exposed to UVB 3-5 days after the last application of tam/oil, using a Bio-Rad Gel Doc 2000 UV transilluminator (302 nm) for 5 min with an exposure of 600 mJ/cm^2. This represents 5-10 times the minimal erythema-inducing dose, in keeping with the rationale of inducing sunburn and studying sunburn-evoked pain.

human TRPA1 = biological target: T1, human TRPA1 (Homo sapiens, UniProt O75762); assay: Ca2+ transient in N2a cells transfected with human TRPA1; type: cell-based
T1 construct: expressed in transfected cells; host or cells: N2a cells, pcDNA3.1 plasmid, co-transfected with an eGFP plasmid
T1 sequence (O75762 whole entry): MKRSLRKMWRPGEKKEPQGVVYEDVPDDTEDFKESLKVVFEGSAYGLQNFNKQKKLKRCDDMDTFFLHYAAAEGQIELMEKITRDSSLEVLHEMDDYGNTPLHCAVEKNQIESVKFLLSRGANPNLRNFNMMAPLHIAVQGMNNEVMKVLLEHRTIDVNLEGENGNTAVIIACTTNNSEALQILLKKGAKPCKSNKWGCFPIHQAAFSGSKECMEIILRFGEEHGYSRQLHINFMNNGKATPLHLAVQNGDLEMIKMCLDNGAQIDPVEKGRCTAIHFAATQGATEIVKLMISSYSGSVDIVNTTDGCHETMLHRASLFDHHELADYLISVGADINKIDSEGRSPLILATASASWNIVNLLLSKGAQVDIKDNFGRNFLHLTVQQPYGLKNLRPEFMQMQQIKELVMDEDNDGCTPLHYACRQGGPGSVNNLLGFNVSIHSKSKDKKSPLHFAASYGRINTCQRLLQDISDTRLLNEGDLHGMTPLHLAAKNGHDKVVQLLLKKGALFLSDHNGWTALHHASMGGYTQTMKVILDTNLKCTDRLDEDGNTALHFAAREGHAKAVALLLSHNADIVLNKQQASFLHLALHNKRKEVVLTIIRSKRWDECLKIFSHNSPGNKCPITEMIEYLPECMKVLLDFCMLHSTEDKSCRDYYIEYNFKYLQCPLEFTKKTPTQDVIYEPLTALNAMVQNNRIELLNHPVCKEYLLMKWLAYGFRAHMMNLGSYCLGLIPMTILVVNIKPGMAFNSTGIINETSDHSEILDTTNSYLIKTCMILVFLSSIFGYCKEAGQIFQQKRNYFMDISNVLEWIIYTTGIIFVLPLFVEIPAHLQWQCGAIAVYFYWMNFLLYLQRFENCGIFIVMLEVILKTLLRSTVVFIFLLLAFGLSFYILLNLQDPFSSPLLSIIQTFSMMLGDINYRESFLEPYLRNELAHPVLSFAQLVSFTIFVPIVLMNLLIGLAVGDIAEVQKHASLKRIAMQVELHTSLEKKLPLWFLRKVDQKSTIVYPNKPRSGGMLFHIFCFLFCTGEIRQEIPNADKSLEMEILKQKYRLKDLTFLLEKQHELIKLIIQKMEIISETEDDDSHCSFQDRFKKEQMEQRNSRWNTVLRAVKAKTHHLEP
Experimental: Compounds were tested for their effect on TRPA1. N2a permanent cells were transfected with human TRPA1 cDNA, using a pcDNA3.1 expression plasmid. They were co-transfected with eGFP-expressing plasmid, or, for control, with eGFP plasmid only.

TRPV4 [3] = biological target: T2, TRPV4 (Homo sapiens, UniProt Q9HBA0); assay: TRPV4-mediated calcium influx in N2a cells with targeted expression of human TRPV4; type: cell-based; design: expressed in transfected cells; host or cells: N2a cells; settings: 2.5 μM inhibitor, pre-incubation 10 min; TRPV4 activated with 10 nM GSK101
Experimental: Compounds (GSK205, 16-12, 16-13, 16-14, 16-18, 16-8, and 16-8/18hy) were tested for their effect on TRPV4-mediated calcium influx in N2a cultured cells with targeted expression of human TRPV4. Ca2+ imaging was performed according to Li et al. (Environ. Health Perspect. 2011, 119, 784-93) and Moore et al. (Proc. Natl. Acad. Sci. U.S.A. 2013, 110, E3225-E3234). Briefly, Ca2+ imaging of primary mouse epidermal keratinocytes (1° MK) in response to chemical activation of TRPV4 was conducted after loading with 2 μM fura2-AM, following a ratiometric Ca2+-imaging protocol with 340/380 nm blue light for dual excitation. Ratios of emissions were acquired at 0.5 Hz. ΔR/R0 was determined as the fraction of the increase of a given ratio over baseline ratio, divided by baseline ratio. For stimulation of cells with UVB, where fura-2 was not suitable because of the proximity of stimulation with 340/380 nm vs. 295 nm, 2 μM fluo4-AM was used instead. Ca2+ imaging was carried out at 488 nm excitation, acquisition of emissions at 0.5 Hz, expressed as ΔF/F0. TRPV4 was activated with 10 nM GSK101, a specific activator, which had no effect on RFP-transfected cells. Each of the […] compounds were added to a concentration of 2.5 μM, and its effect was observed.
Target sequence in this assay (Q9HBA0 whole entry): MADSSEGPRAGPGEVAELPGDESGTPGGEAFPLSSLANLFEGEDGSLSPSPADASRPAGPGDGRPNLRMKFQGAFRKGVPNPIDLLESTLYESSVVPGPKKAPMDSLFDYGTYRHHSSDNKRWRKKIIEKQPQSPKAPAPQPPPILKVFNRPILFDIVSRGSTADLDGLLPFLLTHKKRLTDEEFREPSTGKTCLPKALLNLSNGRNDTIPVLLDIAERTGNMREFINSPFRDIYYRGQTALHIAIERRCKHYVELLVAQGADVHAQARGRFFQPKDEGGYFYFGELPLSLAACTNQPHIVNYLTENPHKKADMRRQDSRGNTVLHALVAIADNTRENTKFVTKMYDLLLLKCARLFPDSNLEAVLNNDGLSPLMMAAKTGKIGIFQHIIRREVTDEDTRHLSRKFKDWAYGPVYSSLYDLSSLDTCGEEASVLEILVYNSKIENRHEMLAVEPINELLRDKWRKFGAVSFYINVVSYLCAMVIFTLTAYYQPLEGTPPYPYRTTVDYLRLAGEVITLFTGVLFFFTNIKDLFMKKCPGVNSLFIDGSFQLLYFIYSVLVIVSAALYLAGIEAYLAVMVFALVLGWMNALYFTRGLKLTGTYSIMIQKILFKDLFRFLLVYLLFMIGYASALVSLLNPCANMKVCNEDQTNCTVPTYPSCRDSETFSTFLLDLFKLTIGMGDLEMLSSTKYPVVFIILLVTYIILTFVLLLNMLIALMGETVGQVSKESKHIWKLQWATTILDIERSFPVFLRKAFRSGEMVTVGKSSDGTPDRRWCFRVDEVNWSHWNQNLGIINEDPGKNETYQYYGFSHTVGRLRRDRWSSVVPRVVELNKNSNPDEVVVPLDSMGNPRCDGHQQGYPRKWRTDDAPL

TRPV4 [4] = biological target: T3, TRPV4 (Mus musculus, UniProt Q9EPK8); assay: GSK101-evoked Ca++ transient in 1° MK; type: cell-based; settings: 5 nM GSK101; GSK205 20 μM
T3 construct: endogenous in cells; host or cells: primary mouse epidermal keratinocytes (1° MK), wild type
T3 sequence (Q9EPK8 whole entry): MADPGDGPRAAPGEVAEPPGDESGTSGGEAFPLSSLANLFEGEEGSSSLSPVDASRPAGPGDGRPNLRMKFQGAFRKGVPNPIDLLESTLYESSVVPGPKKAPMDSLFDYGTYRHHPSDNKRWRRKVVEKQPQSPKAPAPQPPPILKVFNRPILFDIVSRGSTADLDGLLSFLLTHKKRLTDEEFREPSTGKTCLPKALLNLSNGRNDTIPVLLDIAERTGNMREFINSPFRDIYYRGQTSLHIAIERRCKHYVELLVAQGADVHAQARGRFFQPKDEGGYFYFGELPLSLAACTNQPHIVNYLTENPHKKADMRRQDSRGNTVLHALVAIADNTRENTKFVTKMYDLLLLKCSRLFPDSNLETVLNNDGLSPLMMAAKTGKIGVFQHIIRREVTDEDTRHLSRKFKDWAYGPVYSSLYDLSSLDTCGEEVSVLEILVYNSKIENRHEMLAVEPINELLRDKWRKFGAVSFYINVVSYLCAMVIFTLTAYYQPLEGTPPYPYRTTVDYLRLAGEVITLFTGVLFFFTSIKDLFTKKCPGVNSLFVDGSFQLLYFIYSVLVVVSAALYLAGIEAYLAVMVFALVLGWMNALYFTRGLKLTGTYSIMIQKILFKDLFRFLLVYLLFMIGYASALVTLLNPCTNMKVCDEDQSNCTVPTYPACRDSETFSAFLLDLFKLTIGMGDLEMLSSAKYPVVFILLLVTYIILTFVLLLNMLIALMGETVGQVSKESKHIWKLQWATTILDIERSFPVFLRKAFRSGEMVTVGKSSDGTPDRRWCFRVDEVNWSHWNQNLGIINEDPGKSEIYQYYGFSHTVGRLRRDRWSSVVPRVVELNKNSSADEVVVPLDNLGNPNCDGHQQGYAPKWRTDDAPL
Experimental: Ca++ imaging of mouse 1° MK in response to chemical activation of TRPV4 was conducted after loading with 2 μM fura2-AM, following a ratiometric Ca2+ imaging protocol with 340/380 nm […] for dual excitation. Ratios of emissions were acquired at 0.5 Hz. ΔR/R0 was determined as the fraction of the increase of a given ratio over baseline ratio, divided by baseline ratio. For stimulation of cells with UVB, where fura-2 was not suitable because of the proximity of stimulation with 340/380 nm and 295 nm, 2 μM fluo4-AM was used instead. Ca++ imaging was carried out at 488 nm excitation, acquisition of emissions at 0.5 Hz, expressed as ΔF/F0. In the custom-built UV optical system, UV LEDs were capped with a ball lens, a transparent optical window in the shape of a hemispherical lens (FIG. 2B). The LED output optical beam focused at 15-20 mm from the lens, with a spot diameter of approximately 1.5-2.0 mm (FIG. 2C). […] The thermal equilibration stage was set for physiological temperature. We confirmed the non-thermal nature of UVB stimulation using the customized 295 nm LED device in a dedicated experiment (FIG. 2D), thus confirming the specific modality of stimulation as UVB.

[5] = Histopathology of UVB-photodermatitis in topically treated paw-pad skin; type: in vivo, mouse; settings: 5 mM GSK205 topical
Experimental: GSK205 topical treatment: A viscous solution of 68% EtOH/5% glycerol plus 1 mM or 5 mM GSK205 (none for control) was applied to hindpaws by rubbing in 20 μL, applied at time-points 1 hour and again 10 min before UV exposure.

TRPV4 [6] = biological target: T2, TRPV4; assay: UVB-evoked Ca++ transient in TRPV4-transfected HEK293T cells; type: cell-based; design: expressed in transfected cells; host or cells: HEK293T cells; settings: pre-exposure to 20 μM GSK205
Target sequence in this assay (Q9HBA0 whole entry, species assumed): as the sequence (Q9HBA0 whole entry) above

Row | inhibition of TRPA1 activity (human TRPA1; doses below or equaling 25 μM) | SMILES | formalin-induced nocifensive behavior at the 45-min time-point ([1]; 0.5 mM/10 μL, 45-min time-point) | formalin-induced nocifensive behavior, time course ([1]; 0.5 mM/10 μL) | formalin-induced nocifensive behavior, quantitation, in particular second phase [1] | UVB-overexposure evoked nocifensive behavior (response to pain) [2] | inhibitory activity against human TRPA1 (human TRPA1; 5 μM compound) | inhibition of TRPV4-mediated calcium influx (peak calcium concentration in the cells) (TRPV4 [3]) | GSK101-evoked Ca++ transient (TRPV4 [4]) | UVB-photodermatitis histopathology (inflammation) [5] | UVB-evoked Ca++ signal in TRPV4-transfected HEK293T cells (TRPV4 [6])
1 |  | CN(CCc1ccc(Nc2nc(-c3ccccc3)cs2)cc1)Cc1ccccc1 [Compound 16-8] | reduction to control levels | significantly attenuated nocifensive behavior | significant attenuation of nocifensive behavior | especially effective in reducing the response to pain | inhibitory activity | most potent |  |  | 
2 | did not inhibit TRPA1 activity | CN(CCc1ccc(Nc2nc(-c3cccnc3)cs2)cc1)Cc1ccccc1 [GSK205] |  | not different from control | lack of effect | as effective as vehicle |  | very low potency | eliminated; also recorded: completely blocked | virtual elimination of inflammation; also recorded: markedly reduced inflammatory infiltrate | blocked; also recorded: virtually eliminates
